Measurements reported in BindingDB's records for doi:10.1016/j.bmcl.2014.01.058 (Novartis Institutes For Biomedical Research, 2014).

Columns and labels:
[1] = Inhibition of RSK2 in mouse BAF cells assessed as YB1 phosphorylation at Ser102 by electrochemiluminescence assay
[2] = Inhibition of recombinant full length RSK2 (unknown origin) using biotin-AGAGRSRHSSYPAGT-OH as substrate after 150 mins

| Compound | IC50 [1] [nM] | IC50 [2] [nM] |
| --- | --- | --- |
| COc1cccc(F)c1-c1cccc2nc(Nc3ccccc3)oc12 | > 20000 | 1000 |
| COc1cccc(Nc2nc3cccc(-c4c(F)cccc4OC)c3o2)n1 | > 20000 | 620 |
| COc1cc(Nc2nc3cccc(-c4cccc5[nH]cnc45)c3o2)cc(OC)c1OC | 800 | 4 |
| COc1cc(Nc2nc3cccc(-c4c(OC)cccc4OC)c3o2)cc(OC)c1OC | > 20000 | 1200 |
| CCOc1cccc(F)c1-c1cccc2nc(Nc3cc(OC)c(OC)c(OC)c3)oc12 | 10800 | 490 |
| COc1cc(Nc2nc3cccc(-c4c(F)cccc4OC(C)C)c3o2)cc(OC)c1OC | > 20000 | 970 |
| COc1ccccc1-c1cccc2nc(Nc3cc(OC)c(OC)c(OC)c3)oc12 | 5700 | 20 |
| COc1cc(Nc2nc3cccc(-c4ccccc4-c4cn[nH]c4)c3o2)cc(OC)c1OC | > 20000 | 9300 |
| COc1cccc(Nc2nc3cccc(-c4c(F)cccc4OC)c3o2)c1 | 15400 | 410 |
| COc1cc(Nc2nc3cccc(-c4ccccc4OC(F)(F)F)c3o2)cc(OC)c1OC | > 20000 | 4000 |
| COc1ccc(Nc2nc3cccc(-c4c(F)cccc4OC)c3o2)cc1O[C@H]1CCNC1 | 6300 | 10 |
| COc1ccc(F)cc1-c1cccc2nc(Nc3cc(OC)c(OC)c(OC)c3)oc12 | 3700 | 40 |
| COc1ccc(Nc2nc3cccc(-c4c(F)cccc4OC)c3o2)cc1OC | 6500 | 70 |
| COc1ccc(Nc2nc3cccc(-c4c(F)cccc4OC)c3o2)cc1N | > 20000 | 220 |
| COc1cc(Nc2nc3cccc(-c4ccccc4F)c3o2)cc(OC)c1OC | 18000 | 220 |
| COc1cccc(F)c1-c1cccc2nc(NC3CCOCC3)oc12 | > 20000 | 3200 |
| COc1cccc(F)c1-c1cccc2nc(Nc3cccc(S(N)(=O)=O)c3)oc12 | > 20000 | 340 |
| COc1cccc(F)c1-c1cccc2nc(N)oc12 | > 20000 | 2800 |
| COc1cc(Nc2nc3cccc(-c4c(F)cccc4OC)c3o2)cc(OC)c1 | 17200 | 210 |
| COc1cccc(F)c1-c1cccc2nc(NC3CCCCC3)oc12 | > 20000 | 620 |
| COc1ccc(Nc2nc3cccc(-c4c(F)cccc4OC)c3o2)cc1 | > 20000 | 1400 |
| COc1cc(Nc2nc3cccc(-c4cccc5cn[nH]c45)c3o2)cc(OC)c1OC | 5700 | 50 |
| CCOc1cccc(Nc2nc3cccc(-c4c(F)cccc4OC)c3o2)c1 | > 20000 | 730 |
| COc1ccc(C)cc1-c1cccc2nc(Nc3cc(OC)c(OC)c(OC)c3)oc12 | 14500 | 1100 |
| COc1cc(C)ccc1-c1cccc2nc(Nc3cc(OC)c(OC)c(OC)c3)oc12 | 9700 | 40 |
| COc1cc(Nc2nc3cccc(-c4nc(C)[nH]c4C)c3o2)cc(OC)c1OC | 19800 | 560 |
